Source: PubChem BioAssay (NCI)
Where “and” joins values, the source holds several entries; their conditions need not be identical. Equal values may be shown once.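 Cultured in 96-well plates, cells were exposed to test compound for 48 hours across five concentrations. Abbreviation: GI50, concentration required for 50% inhibition of growth. The concentration for full growth arrest is given as TGI.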

How the values were obtained:
Experiment in all cases: growth of human tumour cells (NCI), 48 h
[1] = tested on: SF-295 CNS
[2] = tested on: 786-0 renal
[3] = tested on: SF-268 CNS
[4] = tested on: EKVX NSCLC
[5] = tested on: U251 CNS
[6] = tested on: OVCAR-4 ovarian
[7] = tested on: CAKI-1 renal
[8] = tested on: OVCAR-8 ovarian
[9] = tested on: HOP-92 NSCLC
[10] = tested on: SR leukemia

Row | Structure (SMILES) | GI50 [1] | TGI [1] | GI50 [2] | TGI [2] | GI50 [3] | TGI [3] | GI50 [4] | TGI [4] | GI50 [5] | TGI [5] | GI50 [6] | TGI [6] | GI50 [7] | TGI [7] | GI50 [8] | TGI [8] | GI50 [9] | TGI [9] | TGI [10] | GI50 [10]
1 | COc1cc2c3c(n(CCCN4CCOCC4)c(=O)c2cc1OC)-c1cc2c(cc1C3=O)OCO2 | 0.137 µM | > 38.8 µM | 0.689 µM | 20.3 µM | 0.954 µM | > 100 µM | 50.9 µM | > 100 µM | 3.56 µM | > 91.6 µM | 51 µM | > 100 µM | 0.52 µM | 14.6 µM | 3.62 µM | > 100 µM | 3.21 µM | > 91.5 µM | – | –
2 | COc1ccc2c(c1)c(=O)oc1cc(OC/C(=N\O)c3ccc(F)cc3)ccc12 | 20.2 µM | 49.1 µM | 13.6 µM | 33.7 µM | 24.9 µM | > 100 µM | 30.2 µM | > 100 µM | 20.2 µM | 48.1 µM | 18.5 µM | 44.5 µM | 19.9 µM | 47.8 µM | 27.3 µM | 97.5 µM | 24.9 µM | 72.2 µM | – | –
3 | COC(=O)C12OCC34C(CC5C(C)=CC(=O)C(O)C5(C)C3C(O)C1O)OC(=O)C(OC(=O)CC(C)C)C24 (configuration not stated) | 0.077 µM | – | 0.0223 µM | 0.107 µM and 0.207 µM | 0.0671 µM and 0.05 µM | – | 0.0612 µM | – | < 0.0342 µM | – | – | – | 0.12 µM and 0.0876 µM | – | < 0.0391 µM and 0.05 µM | – | 0.0442 µM and 0.05 µM | 0.0174 µM and 0.119 µM and 0.0651 µM | 0.0506 µM | –
4 | Cc1ccc(S(=O)(=O)N2C/C(=C\c3cc(F)cc(F)c3)C(=O)/C(=C/c3cc(F)cc(F)c3)C2)cc1 | 0.291 µM | 1.06 µM | 0.492 µM | 1.66 µM | 0.347 µM | 1.31 µM | – | – | 0.178 µM | 0.452 µM | 0.367 µM | 3.57 µM | 0.367 µM | 2.4 µM | 0.301 µM | 1.77 µM | 1.1 µM | 3.17 µM | 0.296 µM | 0.0364 µM
5 | COC(=O)CCC(=O)C(C#N)c1ccc(Cl)cc1Cl (configuration not stated) | – | > 100 µM | – | > 100 µM | – | > 100 µM | – | > 100 µM | – | > 100 µM | – | – | – | > 100 µM | – | – | – | > 100 µM | > 100 µM | –
6 | O=C(O)c1cn(C2CC2)c2cc(N3CCN(C(=O)Nc4nc(-c5ccc(Cl)cc5)cs4)CC3)c(F)cc2c1=O | 3.03 µM | 23.7 µM | 2.32 µM | 22.5 µM | 0.828 µM | > 100 µM | 2.97 µM | > 100 µM | 1.38 µM | 16.1 µM | 3.61 µM | > 100 µM | 3.81 µM | > 100 µM | 1.86 µM | 50.9 µM | 1.85 µM | 7.63 µM | – | –
7 | CCOCC[P+](c1ccccc1)(c1ccccc1)c1ccccc1 | 20.4 µM | 78.6 µM | 31.3 µM | > 100 µM | 27.3 µM | > 100 µM | – | – | 18.1 µM | 92.5 µM | 11.9 µM | > 100 µM | 44.1 µM | > 100 µM | 22.2 µM | > 100 µM | – | – | > 100 µM | 12.1 µM
8 | COc1ccc(/C=C/C(=O)c2ccc(NC(=O)CSc3nnc(-c4cc(OC)c(OC)c(OC)c4)o3)cc2)cc1 | 1.77 µM | 3.35 µM | 1.7 µM | 3.36 µM | 1.79 µM | 3.96 µM | – | – | 1.68 µM | 3.18 µM | 2 µM | 4.62 µM | – | – | 2.32 µM | 5.73 µM | 1.93 µM | 4.23 µM | 4.01 µM | 1.86 µM
9 | C/C(CC(=O)Nc1ccc([N+](=O)[O-])cc1)=N/N=C(N)N | – | > 100 µM | – | > 100 µM | – | > 100 µM | – | > 100 µM | – | > 100 µM | – | – | – | – | – | > 100 µM | – | > 100 µM | – | –
10 | COc1ccc2c(c1)CC[C@@H]1[C@@H]2CC[C@]2(C)c3c(cc(C(=O)c4ccccc4)c4sccc34)C[C@@H]12 | > 100 µM | > 100 µM | > 100 µM | > 100 µM | > 100 µM | > 100 µM | > 100 µM | > 100 µM | > 100 µM | > 100 µM | 76.8 µM | > 100 µM | > 100 µM | > 100 µM | > 100 µM | > 100 µM | – | – | > 100 µM | > 100 µM
11 | O=C(Nc1cccc(-n2cc(-c3ccncc3)c(-c3ccc(O)c(Cl)c3)n2)c1)Nc1ccc(Cl)c(C(F)(F)F)c1 | 1.88 µM | 5.12 µM | 2.08 µM | 8.18 µM | 2.46 µM | 8.1 µM | – | – | 1.7 µM | 8.02 µM | 2.77 µM | 9.97 µM | 2.02 µM | 7.33 µM | – | – | 0.455 µM | 2.93 µM | 5.6 µM | 1.6 µM
12 | NC(CCCNCc1ccccc1O)C(=O)O (configuration not stated) | – | > 100 µM | – | > 100 µM | – | > 100 µM | – | > 100 µM | – | – | – | > 100 µM | – | > 100 µM | – | > 100 µM | – | > 100 µM | – | –
13 | C#Cc1ccc(-n2c(/C=C/c3ccc4ccccc4n3)nc3ncccc3c2=O)cc1 | 0.386 µM | 1.52 µM | 0.575 µM | 2.24 µM | 0.488 µM | 2.33 µM | – | – | 0.419 µM | 1.59 µM | 0.315 µM | 1.81 µM | 0.501 µM | 2.69 µM | 0.763 µM | 2.95 µM | 0.37 µM | 1.8 µM | – | –
14 | C/C(CN1C(=O)c2ccccc2C1=O)=N\NS(C)(=O)=O | – | > 100 µM | – | > 100 µM | – | > 100 µM | – | > 100 µM | – | > 100 µM | – | > 100 µM | – | > 100 µM | – | > 100 µM | – | – | – | –
15 | N=C(N)c1ccc(-c2ccc(-c3ccco3)o2)cc1F | 1.67 µM | 3.81 µM | 1.74 µM | 4.08 µM | 2.9 µM | 10.4 µM | – | – | 1.72 µM | 3.55 µM | 2.88 µM | 11.1 µM | 1.78 µM | 4.64 µM | 2.31 µM | 6.53 µM | 0.968 µM | 2.98 µM | 5.4 µM | 1.97 µM
16 | CCOC(=O)c1c2c(n3cccc(F)c13)C(=O)c1ncccc1C2=O | 0.5 µM | 3.69 µM | 0.114 µM | 4.99 µM | 0.0963 µM | 28.2 µM | 1.07 µM | 15.8 µM | 0.0411 µM | 1.39 µM | 1.8 µM | 11.3 µM | 0.0562 µM | 21.8 µM | 1.17 µM | 7.47 µM | 2.22 µM | 9.24 µM | – | –
